Test results as given in the NIST ThermoML archive (doi:10.1016/j.jct.2015.11.023).
± gives the expanded uncertainty stated by the source.

Columns and labels:
[1] = for surface tension liquid-gas: Maximal bubble pressure; for mass density: 101.33 kPa, Liquid, Vibrating tube method
[2] = refractive index (Na D-line) (dimensionless); conditions: 101.33 kPa, Liquid, Standard Abbe refractometry

Row | Structure (SMILES) | surface tension liquid-gas ([1]; 303.15 K) [mN/m] | mass density ([1]; 303.15 K) [kg/m3] | surface tension liquid-gas ([1]; 308.15 K) [mN/m] | mass density ([1]; 308.15 K) [kg/m3] | surface tension liquid-gas ([1]; 313.15 K) [mN/m] | mass density ([1]; 313.15 K) [kg/m3] | surface tension liquid-gas ([1]; 318.15 K) [mN/m] | mass density ([1]; 318.15 K) [kg/m3] | surface tension liquid-gas ([1]; 323.15 K) [mN/m] | mass density ([1]; 323.15 K) [kg/m3] | surface tension liquid-gas ([1]; 328.15 K) [mN/m] | mass density ([1]; 328.15 K) [kg/m3] | surface tension liquid-gas ([1]; 333.15 K) [mN/m] | mass density ([1]; 333.15 K) [kg/m3] | surface tension liquid-gas ([1]; 338.15 K) [mN/m] | mass density ([1]; 338.15 K) [kg/m3] | refractive index ([2]; 303.15 K) | refractive index ([2]; 308.15 K) | refractive index ([2]; 313.15 K) | refractive index ([2]; 318.15 K) | also measured
1 | CCCC[n+]1ccccc1.N#C[N-]C#N [1-butylpyridinium dicyanamide] | 55.5 ± 0.5 | 1065.76 ± 2 | 55.2 ± 0.5 | 1062.7 ± 2 | 54.9 ± 0.5 | 1059.66 ± 2 | 54.5 ± 0.5 | 1056.64 ± 2 | 54.2 ± 0.5 | 1053.63 ± 2 | 53.9 ± 0.5 | 1050.63 ± 2 | 53.6 ± 0.5 | 1047.66 ± 2 | 53.4 ± 0.5 | 1044.69 ± 2 | 1.5325 ± 0.003 | 1.5309 ± 0.003 | 1.5285 ± 0.003 | 1.527 ± 0.003 | refractive index ([2]; 323.15 K): 1.5253 ± 0.003; refractive index ([2]; 328.15 K): 1.5237 ± 0.003; refractive index ([2]; 333.15 K): 1.5217 ± 0.003; refractive index ([2]; 338.15 K): 1.5202 ± 0.003
2 | CCCCC[n+]1ccccc1.N#C[N-]C#N [1-pentylpyridinium dicyanamide] | 53 ± 0.5 | 1050.05 ± 2 | 52.7 ± 0.5 | 1047.03 ± 2 | 52.4 ± 0.5 | 1044.03 ± 2 | 52.1 ± 0.5 | 1041.04 ± 2 | 51.7 ± 0.5 | 1038.07 ± 2 | 51.4 ± 0.5 | 1035.11 ± 2 | 51.2 ± 0.5 | 1032.17 ± 2 | 51 ± 0.5 | 1029.24 ± 2 | 1.5287 ± 0.003 | 1.5272 ± 0.003 | 1.5258 ± 0.003 | 1.5243 ± 0.003 | refractive index ([2]; 323.15 K): 1.523 ± 0.003; refractive index ([2]; 328.15 K): 1.5212 ± 0.003; refractive index ([2]; 333.15 K): 1.5194 ± 0.003; refractive index ([2]; 338.15 K): 1.5179 ± 0.003
3 | CCC[n+]1ccccc1.N#C[N-]C#N [1-propylpyridinium dicyanamide] | 57.7 ± 0.8 | 1086.92 ± 4.1 | 57.4 ± 0.8 | 1083.79 ± 4.1 | 57 ± 0.8 | 1080.69 ± 4.1 | 56.7 ± 0.8 | 1077.6 ± 4.1 | 56.4 ± 0.8 | 1074.52 ± 4.1 | 56.1 ± 0.8 | 1071.46 ± 4.1 | 55.7 ± 0.8 | 1068.42 ± 4.1 | 55.4 ± 0.8 | 1065.4 ± 4.1 | 1.539 ± 0.006 | 1.5374 ± 0.006 | 1.5356 ± 0.006 | 1.5342 ± 0.006 | refractive index ([2]; 323.15 K): 1.5329 ± 0.006; refractive index ([2]; 328.15 K): 1.5312 ± 0.006; refractive index ([2]; 333.15 K): 1.5293 ± 0.006; refractive index ([2]; 338.15 K): 1.5276 ± 0.006
